Source: patent US7932271B2, “Heterocyclic methyl sulfone derivative” (Daiichi Pharmaceutical Co., Ltd., priority 2003, dated 2011)

What was measured:
[1] = system: β amyloid protein (Aβ) secreted by E35 cells (human glioma H4 cells transfected with APP751 gene); assay: Inhibition of production or secretion of β-amyloid protein (Aβ) in E35 cells, sandwich ELISA of the supernatant; format: cell-based; details: 24 hours with test compound, compared to DMSO control cells, read-out: Activity (IC50, concentration at which 50% inhibition of Aβ production was observed)
Method: The inhibitory activity against formation of β amyloid protein of the compounds obtained in Examples was tested in the method described bellow.
E35 cells were established by transfecting APP751 gene which is a wild type human β-amyloid protein precursor into human glioma cells (H4 cells).
E35 cells were seeded in 96-well plates and cultured in an incubator of 37° C. by using a Dulbecco's Modified Eagle's Medium containing 10% inactivated fetal bovine serum (10% FBS-DMEM). Twenty-four hours after seeding, a test compound dissolved in DMSO so as to give its concentration to be 2000 times as much as that of the final concentration was added to the medium in an amount of 1/2000 capacity of the culture medium. The cells were cultured for additional twenty-four hours, and then the supernatant was collected. The amount of β amyloid protein (Aβ) secreted in the supernatant was measured by the sandwich enzyme-linked immunosorbent assay (ELISA). Described specifically, a monoclonal antibody 25-1, which recognized Aβ25-35, was immobilized onto a 96-well ELISA plate, followed by the incubation at 4° C. for 16 to 20 hours. After washing with a phosphate buffer (pH 7.4) (PBS), a biotinylated monoclonal antibody MA32-40, which recognized Aβ1-8, was added, and the plate was kept at 4° C. for 2 hours. After the supernatant was removed and the well was washed sufficiently with PBS, alkaline phosphatase-conjugated streptavidin was added to the plate. Absorbance was measured while adding BlouPhos (manufactured by KPL) as a substrate. An amount of Aβ contained in the supernatant was calculated using a calibration curve separately created using Aβ of a known concentration. IC50 of the test compound was presented as the concentration at which 50% inhibition of Aβ production was observed compared to the amount of Aβ of the control cells to which only DMSO was added.
When there is at least 10-times difference between the IC50 and the concentration at which cytotoxicity appears, then the compound is judged as a compound having an inhibitory activity against production or secretion of β amyloid protein.

Row | SMILES | melting point | IC50 [1] [nM]
1 | N#Cc1ccc(F)c(C(c2cc(N)ncc2Cl)S(=O)(=O)c2ccc(Cl)cc2)c1 (stereo not drawn) [Example 234, 3-[(2-Amino-5-chloropyridin-4-yl)(4-chlorophenylsulfonyl)methyl]-4-fluorobenzonitrile] | > 220 °C | < 5
2 | CS(=O)(=O)Nc1cc(C(c2cc(F)ccc2F)S(=O)(=O)c2ccc(F)cc2)c(Cl)cn1 (stereo not drawn) [Example 216, N-[5-Chloro-4-[(2,5-difluorophenyl)-(4-fluorophenylsulfonyl)methyl]pyridin-2-yl]methanesulfonamide] | 178 to 179 °C | < 5
3 | Nc1cc(C(c2cc(F)ccc2F)S(=O)(=O)c2ccc(Cl)cc2)c(F)cn1 (stereo not drawn) [Example 203, [4-[(4-Chlorophenylsulfonyl)(2,5-difluorophenyl)methyl]-5-fluoropyridin-2-yl]amine] | 181 to 183 °C | 5 to 50
4 | O=S(=O)(c1ccc(Cl)cc1)C(c1ccc(C2OCCO2)cn1)c1cc(F)ccc1F (stereo not drawn) [Example 42, 2-[(4-Chlorophenylsulfonyl)-(2,5-difluorophenyl)methyl]-5-(1,3-dioxolan-2-yl)pyridine] | 167 to 168 °C | 50 to 500
5 | COc1cc(S(=O)(=O)C(c2cc(F)ccc2F)c2cc(N)ncc2Cl)ccc1Cl (stereo not drawn) [Example 239, [5-Chloro-4-[(4-chloro-3-methoxyphenylsulfonyl)(2,5-difluorophenyl)methyl]pyridin-2-yl]amine] | 198 to 200 °C | 50 to 500
6 | Nc1cc(C(c2cc(F)ccc2F)S(=O)(=O)c2ccc(Cl)nc2)c(Cl)cn1 (stereo not drawn) [Example 245, [5-Chloro-4-[(6-chloropyridin-3-ylsulfonyl)(2,5-difluorophenyl)methyl]pyridin-2-yl]amine] | 157 to 158 °C | 5 to 50
7 | O=S(=O)(c1ccc(Cl)cc1)C(c1ccc(CO)cn1)c1cc(F)ccc1F (stereo not drawn) [Example 43, 2-[(4-Chlorophenylsulfonyl)-(2,5-difluorophenyl)methyl]-5-(hydroxymethyl)pyridine] | 151 to 152 °C | 50 to 500
8 | CS(=O)(=O)Nc1cc(C(c2cc(F)ccc2F)S(=O)(=O)c2ccc(Cl)cc2)c(Cl)cn1 (stereo not drawn) [Example 197, N-[5-Chloro-4-[(4-chlorophenylsulfonyl)(2,5-difluorophenyl)methyl]pyridin-2-yl]methanesulfonamide] | 220 to 222 °C | < 5
9 | Nc1cc(C(c2cc(F)ccc2F)S(=O)(=O)c2ccc(Cl)s2)c(Cl)cn1 (stereo not drawn) [Example 243, [5-Chloro-4-[(5-chlorothiophen-2-ylsulfonyl)(2,5-difluorophenyl)methyl]pyridin-2-yl]amine] | 170 to 171 °C | 5 to 50
10 | Nc1cc(C(c2cc(F)ccc2F)S(=O)(=O)c2ccc(Cl)cc2)c(Cl)cn1 (stereo not drawn) [Example 196, [5-Chloro-4-[(4-chlorophenylsulfonyl)(2,5-difluorophenyl)methyl]pyridin-2-yl]amine] | 147 to 150 °C | < 5
11 | O=S(=O)(c1ccc(Cl)cc1)C(c1cc(F)ccc1F)c1ccncc1Cl (stereo not drawn) [Example 55, 3-Chloro-4-[(4-chlorophenylsulfonyl)-(2,5-difluorophenyl)methyl]pyridine] | 160 to 161 °C | 5 to 50
12 | O=S(=O)(c1ccc(Cl)cc1)C(c1cc(F)ccc1F)C1CCCCC1 (stereo not drawn) [Example 1, 2-[[(4-Chlorophenyl)sulfonyl](cyclohexyl)methyl]-1,4-difluorobenzene] | 107 to 109 °C | 50 to 500
13 | CN(CCO)c1cc(C(c2cc(F)ccc2F)S(=O)(=O)c2ccc(Cl)cc2)c(Cl)cn1 (stereo not drawn) [Example 164, 2-[[5-Chloro-4-[(4-chlorophenylsulfonyl)-(2,5-difluorophenyl)methyl]pyridin-2-yl](methyl)amino]ethanol] | 88 to 89 °C | < 5
14 | O=S(=O)(c1ccc(Cl)cc1)C(c1cc(F)ccc1F)c1cc(NS(=O)(=O)N2CCCCC2)ncc1Cl (stereo not drawn) [Example 270, N-[5-Chloro-4-[(4-chlorophenylsulfonyl)(2,5-difluorophenyl)methyl]pyridin-2-yl]piperidine-1-sulfonamide] | 192 to 194 °C | 5 to 50
15 | O=S(=O)(c1ccc(Cl)cc1)C(c1cc(F)ccc1F)c1cc(N2CCOCC2)ncc1Cl (stereo not drawn) [Example 59, 4-[5-Chloro-4-[(4-chlorophenylsulfonyl)-(2,5-difluorophenyl)methyl]pyridin-2-yl]morpholine] | 180 to 181 °C | 5 to 50
16 | O=C(O)CCc1ccc(C(c2cc(F)ccc2F)S(=O)(=O)c2ccc(Cl)cc2)nc1 (stereo not drawn) [Example 46, 3-[6-[(4-Chlorophenylsulfonyl)-(2,5-difluorophenyl)methyl]pyridin-3-yl]propionic acid] | 158 to 160 °C | 50 to 500
17 | O=S(=O)(c1ccc(Cl)cc1)C(c1cccnc1)c1cc(F)ccc1F (stereo not drawn) [Example 19, 3-[[(4-Chlorophenyl)sulfonyl]-(2,5-difluorophenyl)methyl]pyridine] | 130 to 131 °C | 50 to 500
18 | O=C(O)CCc1cc(C(c2cc(F)ccc2F)S(=O)(=O)c2ccc(C(F)(F)F)cc2)c(Cl)cn1 (stereo not drawn) [Example 267, 3-[5-Chloro-4-[(2,5-difluorophenyl)(4-trifluoromethylphenylsulfonyl)methyl]pyridin-2-yl]propionic acid] | 166 to 167 °C | 5 to 50
19 | Nc1cc(C(c2cc(F)ccc2F)S(=O)(=O)c2ccc(Cl)cn2)c(Cl)cn1 (stereo not drawn) [Example 241, [5-Chloro-4-[(5-chloropyridin-2-ylsulfonyl)(2,5-difluorophenyl)methyl]pyridin-2-yl]amine] | 187 to 189 °C | 5 to 50
20 | O=S(=O)(Cc1ccncc1)Nc1cc(C(c2cc(F)ccc2F)S(=O)(=O)c2ccc(Cl)cc2)c(Cl)cn1 (stereo not drawn) [Example 269, N-[5-Chloro-4-[(4-chlorophenylsulfonyl)(2,5-difluorophenyl)methyl]pyridin-2-yl]-1-pyridin-4-ylmethanesulfonamide] | 257 °C (dec.) | < 5
21 | CN1CCN(S(=O)(=O)Nc2cc(C(c3cc(F)ccc3F)S(=O)(=O)c3ccc(Cl)cc3)c(Cl)cn2)CC1 (stereo not drawn) [Example 271] | 215 to 218 °C | < 5
22 | CS(=O)(=O)Nc1cc(C(Sc2ccc(Cl)cc2)c2cc(F)ccc2F)c(Cl)cn1 (stereo not drawn) [220 (B), N-[5-chloro-4-[(4-chlorophenylthio)(2,5-difluorophenyl)methyl]pyridin-2-yl]methanesulfonamide] |  | 50 to 500
23 | CS(=O)(=O)NCc1ccc(C(c2cc(F)ccc2F)S(=O)(=O)c2ccc(Cl)cc2)nc1 (stereo not drawn) [Example 82, N-[[6-(4-Chlorophenylsulfonyl)(2,5-difluorophenyl)methylpyridin-3-yl]methyl]methanesulfonamide] |  | 50 to 500
24 | CNCCN(C)c1cc(C(c2cc(F)ccc2F)S(=O)(=O)c2ccc(Cl)cc2)c(Cl)cn1 (stereo not drawn) [Example 109, 5-Chloro-4-[(4-chlorophenylsulfonyl)-(2,5-difluorophenyl)methyl]-2-[N-methyl-N-[2-(methylamino)ethyl]amino]pyridine] |  | 5 to 50
25 | COC(=O)OCc1ccc(C(c2cc(F)ccc2F)S(=O)(=O)c2ccc(Cl)cc2)nc1 (stereo not drawn) [Example 84, [6-(4-Chlorophenylsulfonyl)(2,5-difluorophenyl)methylpyridin-3-yl]methyl methylcarbonate] |  | 50 to 500
26 | CN(C)CCS(=O)(=O)Nc1cc(C(c2cc(F)ccc2F)S(=O)(=O)c2ccc(Cl)cc2)c(Cl)cn1 (stereo not drawn) [Example 279, N-[5-Chloro-4-[(4-chlorophenylsulfonyl)(2,5-difluorophenyl)methyl]pyridin-2-yl]-2-(dimethylamino)ethanesulfonamide] |  | < 5
27 | O=S(=O)(c1ccc(Cl)cc1)C(c1cc(F)ccc1F)c1cc(NCCN2CCOCC2)ncc1Cl (stereo not drawn) [Example 106, 4-[2-[5-Chloro-4-[(4-chlorophenylsulfonyl)-(2,5-difluorophenyl)methyl]pyridin-2-yl]aminoethyl]morpholine] |  | < 5
28 | CS(=O)(=O)Nc1cc(C(c2cc(F)ccc2F)[S+]([O-])c2ccc(Cl)cc2)c(Cl)cn1 (stereo not drawn) [Example 221, N-[5-Chloro-4-[(4-chlorophenylsulfinyl)(2,5-difluorophenyl)methyl]pyridin-2-yl]methanesulfonamide] |  | < 5
29 | [O-][S+](c1ccc(Cl)cc1)C(c1cc(F)ccc1F)c1ccncc1Cl (stereo not drawn) [Example 56, 3-Chloro-4-[(4-chlorophenylsulfinyl)-(2,5-difluorophenyl)methyl]pyridine] |  | 5 to 50
30 | O=S(=O)(c1ccc(Cl)cc1)C(c1cc(F)ccc1F)c1cc(NCC[N+]2([O-])CCOCC2)ncc1Cl (stereo not drawn) [Example 61, 4-[2-[5-Chloro-4-[(4-chlorophenylsulfonyl)-(2,5-difluorophenyl)methyl]pyridin-2-yl]aminoethyl]morpholine-N-oxide] |  | < 5
